Assays:
Format in all cases: in vivo
[1] = test system: Surinam grass (Brachiaria decumbens); assay: Test B pre-/postemergence plant response; conditions: for Surinam Grass plant response rating (0 to 100 scale): 62 g ai/ha, postemergence, 0 is no effect, 100 is complete control; for Plant response rating, Surinam Grass: Postemergence
Summary of the method: (§1)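 Each species received compound formulated in non-phytotoxic solvent with surfactant, either at planting into a loam and sand blend or as a foliar spray once plants reached 2 to 18 cm in peat-based medium. Plants stayed in the greenhouse 13 to 15 days before visual evaluation against controls, scored 0 (no effect) to 100 (complete control).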

[2] = test system: blackgrass (Alopecurus myosuroides); assay: Test B pre-/postemergence plant response; conditions: for Blackgrass plant response rating (0 to 100 scale): 62 g ai/ha, postemergence, 0 is no effect, 100 is complete control; for Plant response rating, Blackgrass: Postemergence
Summary of the method: as §1

corn (Zea mays) = assay: Test B pre-/postemergence plant response; conditions: for Corn plant response rating (0 to 100 scale): 62 g ai/ha, postemergence, 0 is no effect, 100 is complete control; for Plant response rating, Corn: Postemergence
Summary of the method: as §1

[3] = test system: giant foxtail (Setaria faberii); assay: Test B pre-/postemergence plant response; conditions: for Foxtail, Giant plant response rating (0 to 100 scale): 62 g ai/ha, postemergence, 0 is no effect, 100 is complete control; for Plant response rating, Foxtail, Giant: Postemergence
Summary of the method: as §1

[4] = test system: goosegrass (Eleusine indica); assay: Test B pre-/postemergence plant response; conditions: for Goosegrass plant response rating (0 to 100 scale): 62 g ai/ha, postemergence, 0 is no effect, 100 is complete control; for Plant response rating, Goosegrass: Postemergence
Summary of the method: as §1

[5] = test system: green foxtail (Setaria viridis); assay: Test B pre-/postemergence plant response; conditions: for Foxtail, Green plant response rating (0 to 100 scale): 62 g ai/ha, postemergence, 0 is no effect, 100 is complete control; for Plant response rating, Foxtail, Green: Postemergence
Summary of the method: as §1

[6] = test system: johnsongrass (Sorghum halepense); assay: Test B pre-/postemergence plant response; conditions: for Johnsongrass plant response rating (0 to 100 scale): 62 g ai/ha, postemergence, 0 is no effect, 100 is complete control; for Plant response rating, Johnsongrass: Postemergence
Summary of the method: as §1

[7] = test system: lambsquarters (Chenopodium album); assay: Test B pre-/postemergence plant response; conditions: for Lambsquarters plant response rating (0 to 100 scale): 62 g ai/ha, postemergence, 0 is no effect, 100 is complete control; for Plant response rating, Lambsquarters: Postemergence
Summary of the method: as §1

[8] = test system: pigweed (Amaranthus retroflexus); assay: Test B pre-/postemergence plant response; conditions: for Pigweed plant response rating (0 to 100 scale): 62 g ai/ha, postemergence, 0 is no effect, 100 is complete control; for Plant response rating, Pigweed: Postemergence
Summary of the method: as §1

[9] = test system: ragweed (common ragweed, Ambrosia elatior); assay: Test B pre-/postemergence plant response; conditions: for Ragweed plant response rating (0 to 100 scale): 62 g ai/ha, postemergence, 0 is no effect, 100 is complete control; for Plant response rating, Ragweed: Postemergence
Summary of the method: as §1

wild oat (Avena fatua) = assay: Test B pre-/postemergence plant response; conditions: for Oat, Wild plant response rating (0 to 100 scale): 62 g ai/ha, postemergence, 0 is no effect, 100 is complete control; for Plant response rating, Oat, Wild: Postemergence
Summary of the method: as §1

rice (Oryza sativa) = assay: Test B flooded paddy test; conditions: for Plant response rating, Flood, Rice: 250 g ai/ha, flooded paddy test, visual rating on 0 to 100 scale (0 no effect, 100 complete control) after 13 to 15 days; for Plant response rating, Rice: Flood (flooded paddy test), 13 to 15 days; for Rice plant response rating: Flood, 31 g ai/ha, scale 0 to 100 (0 no effect, 100 complete control)
Summary of the method: (§2)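 Ratings are visual, 0–100 (100 = complete control), taken versus untreated controls 13 to 15 days after treatment in the greenhouse. Compound went straight into paddy water held 3 cm above soil, applied to 2-leaf-stage plants of four species.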

[10] = test system: umbrella sedge (Cyperus difformis); assay: Test B flooded paddy test; conditions: for Plant response rating, Flood, Sedge, Umbrella: 250 g ai/ha, flooded paddy test, visual rating on 0 to 100 scale (0 no effect, 100 complete control) after 13 to 15 days; for Plant response rating, Sedge, Umbrella: Flood (flooded paddy test), 13 to 15 days; for Sedge, Umbrella plant response rating: Flood, 31 g ai/ha, scale 0 to 100 (0 no effect, 100 complete control)
Summary of the method: as §2

[11] = 31 g ai/ha, 0 to 100 scale (0 no effect, 100 complete control)
[12] = 125 g ai/ha, scale 0 to 100 (0 no effect, 100 complete control)
[13] = 250 g ai/ha, scale 0 to 100 (0 no effect, 100 complete control), 13 to 15 days
[14] = 62 g ai/ha, scale of 0 to 100 where 0 is no effect and 100 is complete control
[15] = 125 g ai/ha, scale 0 to 100, 0 is no effect, 100 is complete control

## CCCCn1c(-c2cccc(Cl)c2)ncc(C(=O)C2=C(O)CCCC2=O)c1=O [Compound 146]
[1]; 13 to 15 days
  Surinam Grass plant response rating (0 to 100 scale): 65
[1]; [11]
  Plant response rating, Surinam Grass: 65
[1]; [12]
  Plant response rating, Surinam Grass: 75
[1]; [13]
  Plant response rating, Surinam Grass: 75
[2]; 13 to 15 days
  Blackgrass plant response rating (0 to 100 scale): 30
[2]; [11]
  Plant response rating, Blackgrass: 5
[2]; [12]
  Plant response rating, Blackgrass: 35
[2]; [13]
  Plant response rating, Blackgrass: 50
Corn (Zea mays); 13 to 15 days
  Corn plant response rating (0 to 100 scale): 5
Corn (Zea mays); [11]
  Plant response rating, Corn: 0
Corn (Zea mays); [12]
  Plant response rating, Corn: 20
Corn (Zea mays); [13]
  Plant response rating, Corn: 35
[3]; 13 to 15 days
  Foxtail, Giant plant response rating (0 to 100 scale): 85
[3]; [11]
  Plant response rating, Foxtail, Giant: 75
[3]; [12]
  Plant response rating, Foxtail, Giant: 95
[3]; [13]
  Plant response rating, Foxtail, Giant: 98
[4]; 13 to 15 days
  Goosegrass plant response rating (0 to 100 scale): 90
[4]; [11]
  Plant response rating, Goosegrass: 75
[4]; [12]
  Plant response rating, Goosegrass: 95
[4]; [13]
  Plant response rating, Goosegrass: 95
[5]; 13 to 15 days
  Foxtail, Green plant response rating (0 to 100 scale): 55
[5]; [11]
  Plant response rating, Foxtail, Green: 50
[5]; [12]
  Plant response rating, Foxtail, Green: 80
[5]; [13]
  Plant response rating, Foxtail, Green: 90
[6]; 13 to 15 days
  Johnsongrass plant response rating (0 to 100 scale): 45
[6]; [11]
  Plant response rating, Johnsongrass: 45
[6]; [12]
  Plant response rating, Johnsongrass: 70
[6]; [13]
  Plant response rating, Johnsongrass: 95
[7]; 13 to 15 days
  Lambsquarters plant response rating (0 to 100 scale): 98
[7]; [11]
  Plant response rating, Lambsquarters: 95
[7]; [12]
  Plant response rating, Lambsquarters: 100
[7]; [13]
  Plant response rating, Lambsquarters: 100
[8]; 13 to 15 days
  Pigweed plant response rating (0 to 100 scale): 98
[8]; [11]
  Plant response rating, Pigweed: 95
[8]; [12]
  Plant response rating, Pigweed: 100
[8]; [13]
  Plant response rating, Pigweed: 100
[9]; 13 to 15 days
  Ragweed plant response rating (0 to 100 scale): 80
[9]; [11]
  Plant response rating, Ragweed: 65
[9]; [12]
  Plant response rating, Ragweed: 98
[9]; [13]
  Plant response rating, Ragweed: 98
Wild oat (Avena fatua); 13 to 15 days
  Oat, Wild plant response rating (0 to 100 scale): 20
Wild oat (Avena fatua); [11]
  Plant response rating, Oat, Wild: 0
Wild oat (Avena fatua); [12]
  Plant response rating, Oat, Wild: 50
Wild oat (Avena fatua); [13]
  Plant response rating, Oat, Wild: 70
Rice (Oryza sativa)
  Plant response rating, Flood, Rice: 35
  Rice plant response rating: 0
Rice (Oryza sativa); [14]
  Plant response rating, Rice: 0
Rice (Oryza sativa); [15]
  Plant response rating, Rice: 0
[10]
  Plant response rating, Flood, Sedge, Umbrella: 90
  Sedge, Umbrella plant response rating: 0
[10]; [14]
  Plant response rating, Sedge, Umbrella: 50
[10]; [15]
  Plant response rating, Sedge, Umbrella: 80

## COCCn1c(-c2cccc(Cl)c2)ncc(C(=O)C2=C(O)CCCC2=O)c1=O [Compound 147]
[1]; 13 to 15 days
  Surinam Grass plant response rating (0 to 100 scale): 65
[1]; [11]
  Plant response rating, Surinam Grass: 50
[1]; [12]
  Plant response rating, Surinam Grass: 75
[1]; [13]
  Plant response rating, Surinam Grass: 75
[2]; 13 to 15 days
  Blackgrass plant response rating (0 to 100 scale): 40
[2]; [11]
  Plant response rating, Blackgrass: 10
[2]; [12]
  Plant response rating, Blackgrass: 45
[2]; [13]
  Plant response rating, Blackgrass: 55
Corn (Zea mays); 13 to 15 days
  Corn plant response rating (0 to 100 scale): 15
Corn (Zea mays); [11]
  Plant response rating, Corn: 0
Corn (Zea mays); [12]
  Plant response rating, Corn: 25
Corn (Zea mays); [13]
  Plant response rating, Corn: 40
[3]; 13 to 15 days
  Foxtail, Giant plant response rating (0 to 100 scale): 80
[3]; [11]
  Plant response rating, Foxtail, Giant: 65
[3]; [12]
  Plant response rating, Foxtail, Giant: 85
[3]; [13]
  Plant response rating, Foxtail, Giant: 90
[4]; 13 to 15 days
  Goosegrass plant response rating (0 to 100 scale): 70
[4]; [11]
  Plant response rating, Goosegrass: 35
[4]; [12]
  Plant response rating, Goosegrass: 80
[4]; [13]
  Plant response rating, Goosegrass: 95
[5]; 13 to 15 days
  Foxtail, Green plant response rating (0 to 100 scale): 65
[5]; [11]
  Plant response rating, Foxtail, Green: 40
[5]; [12]
  Plant response rating, Foxtail, Green: 80
[5]; [13]
  Plant response rating, Foxtail, Green: 90
[6]; 13 to 15 days
  Johnsongrass plant response rating (0 to 100 scale): 40
[6]; [11]
  Plant response rating, Johnsongrass: 15
[6]; [12]
  Plant response rating, Johnsongrass: 60
[6]; [13]
  Plant response rating, Johnsongrass: 60
[7]; 13 to 15 days
  Lambsquarters plant response rating (0 to 100 scale): 95
[7]; [11]
  Plant response rating, Lambsquarters: 85
[7]; [12]
  Plant response rating, Lambsquarters: 98
[7]; [13]
  Plant response rating, Lambsquarters: 100
[8]; 13 to 15 days
  Pigweed plant response rating (0 to 100 scale): 95
[8]; [11]
  Plant response rating, Pigweed: 85
[8]; [12]
  Plant response rating, Pigweed: 100
[8]; [13]
  Plant response rating, Pigweed: 100
[9]; 13 to 15 days
  Ragweed plant response rating (0 to 100 scale): 75
[9]; [11]
  Plant response rating, Ragweed: 20
[9]; [12]
  Plant response rating, Ragweed: 90
[9]; [13]
  Plant response rating, Ragweed: 98
Wild oat (Avena fatua); 13 to 15 days
  Oat, Wild plant response rating (0 to 100 scale): 10
Wild oat (Avena fatua); [11]
  Plant response rating, Oat, Wild: 5
Wild oat (Avena fatua); [12]
  Plant response rating, Oat, Wild: 20
Wild oat (Avena fatua); [13]
  Plant response rating, Oat, Wild: 45
Rice (Oryza sativa)
  Plant response rating, Flood, Rice: 15
  Rice plant response rating: 0
Rice (Oryza sativa); [14]
  Plant response rating, Rice: 0
Rice (Oryza sativa); [15]
  Plant response rating, Rice: 10
[10]
  Plant response rating, Flood, Sedge, Umbrella: 80
  Sedge, Umbrella plant response rating: 0
[10]; [14]
  Plant response rating, Sedge, Umbrella: 40
[10]; [15]
  Plant response rating, Sedge, Umbrella: 40

— patent publication US8952024B2, “Herbicidal pyrimidone derivatives” (E I du Pont de Nemours and Company, priority 2009, dated 2015)
